ChEMBL document CHEMBL1201862, “PubChem BioAssay data set” (2004)
The source made the active and inactive calls.

How the values were obtained:
[1] = A cytotoxicity screen of small molecule inhibitors of the PhoP region in Salmonella typhi identified in the primary screen. [Related pubchem assays: 1850, 1864, 1985 ]; assay type: functional
[2] = molecular target: T1, Alkaline phosphatase, tissue-nonspecific isozyme (Homo sapiens, UniProt P05186); experiment: human TNAP enzyme inhibitors, SAR follow-up, biochemical, luminescent, dose response (AID 1056)
T1 sequence (P05186 whole entry): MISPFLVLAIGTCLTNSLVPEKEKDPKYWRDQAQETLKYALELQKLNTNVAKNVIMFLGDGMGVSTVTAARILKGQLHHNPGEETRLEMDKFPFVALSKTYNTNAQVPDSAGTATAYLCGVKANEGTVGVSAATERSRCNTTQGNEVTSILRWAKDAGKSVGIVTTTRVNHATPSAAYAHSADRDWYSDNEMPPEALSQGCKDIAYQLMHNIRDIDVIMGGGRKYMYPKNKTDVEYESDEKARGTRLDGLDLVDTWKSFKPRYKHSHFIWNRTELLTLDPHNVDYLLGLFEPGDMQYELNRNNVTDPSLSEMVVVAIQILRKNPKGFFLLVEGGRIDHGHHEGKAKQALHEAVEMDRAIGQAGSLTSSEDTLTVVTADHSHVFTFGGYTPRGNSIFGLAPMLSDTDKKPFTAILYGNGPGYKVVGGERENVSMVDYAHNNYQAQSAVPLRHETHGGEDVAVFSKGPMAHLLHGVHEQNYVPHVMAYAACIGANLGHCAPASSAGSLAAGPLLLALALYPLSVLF

[3] = inhibitors of intracellular T. cruzi replication, confirmation, NIH3T3 host cells, beta-gal luminescence (AID 2044); assay type: functional, cell-based;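 also: intracellular parasites grown in NIH/3T3 mouse fibroblasts as host cells; luminescent beta-galactosidase reporter signal from transgenic T. cruzi replicating inside host cells; inhibitors lower the luminescence signal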
[4] = molecular target: T2, Ubiquitin-conjugating enzyme E2 N (Homo sapiens, UniProt P61088); assay type: functional;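 also: Dose-response confirmation in a TR-FRET assay detecting UBC13-driven polyubiquitin chain formation, inhibition measured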
T2 sequence (P61088 whole entry): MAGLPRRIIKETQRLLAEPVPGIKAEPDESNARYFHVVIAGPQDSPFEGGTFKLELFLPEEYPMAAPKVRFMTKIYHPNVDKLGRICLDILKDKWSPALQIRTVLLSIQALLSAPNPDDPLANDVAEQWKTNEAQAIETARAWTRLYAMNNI

[5] = cytotoxicity toward NIH3T3 fibroblasts, dose response, counter-screen, cell-based, ATP luminescence, mouse fibroblasts (AID 2010); assay type: functional;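 also: cells exposed to compound for about 90 hours before reading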
Aminopeptidase N = molecular target: T3, Aminopeptidase N (Plasmodium falciparum FcB1/Columbia, UniProt O96935); experiment: P. falciparum M1AAP inhibitors, biochemical, fluorogenic H-Leu-NHMec substrate, 1536-well (AID 1445); design: species or system Plasmodium falciparum 3D7, 3D7
T3 sequence (O96935 whole entry): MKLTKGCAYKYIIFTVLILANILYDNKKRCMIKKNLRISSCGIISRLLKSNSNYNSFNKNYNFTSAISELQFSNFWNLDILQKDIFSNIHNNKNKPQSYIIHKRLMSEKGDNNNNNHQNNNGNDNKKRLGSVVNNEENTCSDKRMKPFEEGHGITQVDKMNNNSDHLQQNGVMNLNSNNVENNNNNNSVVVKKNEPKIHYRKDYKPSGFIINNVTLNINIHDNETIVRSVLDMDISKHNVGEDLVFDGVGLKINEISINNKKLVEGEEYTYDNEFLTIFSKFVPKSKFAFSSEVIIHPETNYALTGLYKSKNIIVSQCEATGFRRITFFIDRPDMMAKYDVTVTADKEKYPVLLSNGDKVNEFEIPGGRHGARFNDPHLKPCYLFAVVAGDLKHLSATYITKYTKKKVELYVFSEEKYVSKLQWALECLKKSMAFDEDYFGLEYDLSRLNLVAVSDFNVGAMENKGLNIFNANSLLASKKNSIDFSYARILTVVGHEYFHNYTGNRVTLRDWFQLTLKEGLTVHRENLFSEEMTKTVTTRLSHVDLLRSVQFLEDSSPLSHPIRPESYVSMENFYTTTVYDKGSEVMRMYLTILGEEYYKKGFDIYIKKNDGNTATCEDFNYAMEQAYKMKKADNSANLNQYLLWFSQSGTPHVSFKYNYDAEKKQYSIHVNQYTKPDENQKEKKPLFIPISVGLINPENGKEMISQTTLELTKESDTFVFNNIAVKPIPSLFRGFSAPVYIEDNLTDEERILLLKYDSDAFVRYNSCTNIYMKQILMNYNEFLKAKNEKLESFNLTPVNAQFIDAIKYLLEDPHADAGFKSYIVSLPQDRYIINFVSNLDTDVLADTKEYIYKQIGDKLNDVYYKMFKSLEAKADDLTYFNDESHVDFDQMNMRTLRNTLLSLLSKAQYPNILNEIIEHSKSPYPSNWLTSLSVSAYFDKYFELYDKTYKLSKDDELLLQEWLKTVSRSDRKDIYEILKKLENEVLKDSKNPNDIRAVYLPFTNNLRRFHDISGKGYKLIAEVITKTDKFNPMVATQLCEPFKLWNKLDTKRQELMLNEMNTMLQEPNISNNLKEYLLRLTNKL

[6] = luciferase reporter signal reduction – luminescence, H4-C neuroglioblastoma cells, dose response (AID 2458); assay type: functional, cell-based;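 also: H4 neuroglioblastoma cells stably carrying a luciferase reporter gene fusion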
[7] = cytotoxicity toward DRD oncogenic fibroblasts, dose response, cell-based, non-viral oncogenic, luminescence (AID 1934); assay type: functional; conditions: Homo sapiens
BJ [8] = experiment: cytotoxicity toward BJ-TERT-LT-ST fibroblasts, dose response, cell-based, RAS-independent, luminescence (AID 1935); assay type: functional; conditions: Homo sapiens;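 also: BJ fibroblasts immortalized with TERT plus LT and ST oncogenes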
[9] = inhibitors of firefly luciferase expression or activity, dose response, H4 neuroglioma cells, luminescence (AID 1990); assay type: functional, cell-based
[10] = Luminescence Cell-Based Dose Response HTS to Identify Inhibitors of 5'UTR Stem-Loop Driven Prion Protein mRNA Translation in H4 Neuroglioblastoma Cells. [Related pubchem assays: 1827 (Project Summary), 1813 (Primary HTS)]; assay type: functional
[11] = inhibitors of SNCA 5'UTR-driven translation, confirmation, luminescence, H4 neuroglioblastoma cells, dose confirmation (AID 2454); assay type: functional, cell-based;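 also: H4 neuroglioblastoma cells carrying an alpha-synuclein 5'UTR luciferase reporter; potency for inhibition of the luciferase signal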
BJ [12] = experiment: cells; assay type: functional, cell-based; conditions: Homo sapiens
[13] = inhibitors of SNCA 5'UTR-driven reporter translation, confirmation, H4 neuroglioma cells, luminescence (AID 1988); assay type: functional, cell-based
cells = assay type: functional, cell-based
BJ [14] = experiment: cytotoxicity toward BJ-TERT fibroblasts, dose response, cell-based, RAS-independent, luminescence (AID 1933); assay type: functional; conditions: Homo sapiens
[15] = molecular target: T4, Dual specificity protein phosphatase 6 (Rattus norvegicus, UniProt Q64346); assay type: functional
T4 sequence (Q64346 whole entry): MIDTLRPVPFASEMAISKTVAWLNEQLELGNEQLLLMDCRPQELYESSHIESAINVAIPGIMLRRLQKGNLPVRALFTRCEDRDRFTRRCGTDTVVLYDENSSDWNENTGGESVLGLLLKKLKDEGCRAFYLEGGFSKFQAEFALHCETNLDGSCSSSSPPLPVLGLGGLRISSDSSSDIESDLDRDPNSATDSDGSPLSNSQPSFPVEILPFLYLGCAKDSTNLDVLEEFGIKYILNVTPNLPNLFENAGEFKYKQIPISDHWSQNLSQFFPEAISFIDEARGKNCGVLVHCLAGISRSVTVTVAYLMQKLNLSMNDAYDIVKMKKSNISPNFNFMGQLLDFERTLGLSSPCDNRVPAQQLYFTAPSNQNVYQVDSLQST

[16] = molecular target: T4, Dual specificity protein phosphatase 6
[17] = molecular target: T5, Tyrosine-protein phosphatase non-receptor type 7 (Homo sapiens, UniProt P35236); assay type: functional
T5 sequence (P35236 whole entry): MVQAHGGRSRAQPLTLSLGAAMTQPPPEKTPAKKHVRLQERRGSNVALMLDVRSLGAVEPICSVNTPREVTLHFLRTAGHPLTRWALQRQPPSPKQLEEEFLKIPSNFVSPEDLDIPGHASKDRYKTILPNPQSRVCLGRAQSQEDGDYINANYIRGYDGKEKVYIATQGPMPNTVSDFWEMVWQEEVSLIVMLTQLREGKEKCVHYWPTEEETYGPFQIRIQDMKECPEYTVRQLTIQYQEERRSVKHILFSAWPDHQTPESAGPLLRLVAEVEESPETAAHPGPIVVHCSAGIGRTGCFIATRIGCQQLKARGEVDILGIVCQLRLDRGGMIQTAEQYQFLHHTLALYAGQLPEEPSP

[18] = molecular target: Glyceraldehyde-3-phosphate dehydrogenase (Homo sapiens, UniProt P04406)
Sequence of Glyceraldehyde-3-phosphate dehydrogenase (P04406 whole entry): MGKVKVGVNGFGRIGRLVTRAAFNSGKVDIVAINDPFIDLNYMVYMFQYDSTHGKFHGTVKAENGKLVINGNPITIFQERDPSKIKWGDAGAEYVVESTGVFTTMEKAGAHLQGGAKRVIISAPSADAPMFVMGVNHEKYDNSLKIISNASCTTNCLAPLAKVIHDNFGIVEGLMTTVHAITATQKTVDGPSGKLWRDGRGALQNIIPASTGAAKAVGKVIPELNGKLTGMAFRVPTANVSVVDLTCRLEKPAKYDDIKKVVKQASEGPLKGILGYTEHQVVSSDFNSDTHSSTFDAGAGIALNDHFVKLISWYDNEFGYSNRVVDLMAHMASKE

[19] = molecular target: Melanin-concentrating hormone receptor 1 (Homo sapiens, UniProt Q99705); experiment: Fluorescence-based counterscreen for antagonists of the G-protein coupled receptor 7 (GPR7): cell-based high throughput dose response assay to identify antagonists of the melanin-concentrating hormone receptor 1 (MCHR1).; assay type: functional
Sequence of Melanin-concentrating hormone receptor 1 (Q99705 whole entry): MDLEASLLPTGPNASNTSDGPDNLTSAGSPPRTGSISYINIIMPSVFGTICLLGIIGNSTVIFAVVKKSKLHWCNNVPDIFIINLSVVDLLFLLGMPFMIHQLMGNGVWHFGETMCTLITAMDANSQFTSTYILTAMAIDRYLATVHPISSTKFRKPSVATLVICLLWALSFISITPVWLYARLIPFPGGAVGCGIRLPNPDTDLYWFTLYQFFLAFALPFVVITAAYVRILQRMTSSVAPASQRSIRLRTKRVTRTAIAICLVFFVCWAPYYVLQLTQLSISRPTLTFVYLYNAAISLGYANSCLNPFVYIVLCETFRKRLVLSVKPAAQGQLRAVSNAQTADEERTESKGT

**Q.** Which EC50 [1] does the source give for `CN1C(=O)C2(Nc3ccccc3-c3nc4ccccc4n32)c2ccccc21` (centres undefined) here?
**A.** > 50 µM (active)

**Q.** With `O=C1c2ccccc2C(=O)N1CCC(c1ccccc1)c1ccco1` (centres undefined) as the compound, how does the EC50 [1] read?
**A.** > 50 µM (active)

**Q.** With `COc1ccc(C(C)(C)C)cc1S(=O)(=O)Nc1cccnc1` as the compound, how does the IC50 [2] read?
**A.** 26.4 µM (active)

**Q.** With `C/C(Cl)=C\Cn1c(O)c(/N=N/C(=N)S)c2ccccc21` as the compound, how does the EC50 [3] read?
**A.** 1.2 µM (active)

**Q.** What about the IC50 [4] of the same compound?
**A.** > 20 µM (inactive)

**Q.** What about the EC50 [5] of the same compound?
**A.** > 30 µM (not active)

**Q.** And the IC50 (Aminopeptidase N)?
**A.** 63.5 µM (active)

**Q.** Which EC50 [6] does the source give for `Cc1ccc(NC(=O)CSc2nc3ccccc3c3nc4ccccc4n23)cc1` here?
**A.** 0.518 µM (active)

**Q.** And the EC50 [7]?
**A.** 0.784 µM (active)

**Q.** What about the EC50 (BJ [8]) of the same compound?
**A.** 6.66 µM (inconclusive)

**Q.** What about the EC50 [9] of the same compound?
**A.** 0.142 µM (active)

**Q.** What about the EC50 [10] of the same compound?
**A.** < 0.1 µM (active)

**Q.** And the EC50 [11]?
**A.** 0.992 µM (active)

**Q.** What about the EC50 (BJ [12]) of the same compound?
**A.** 24.2 µM (inconclusive)

**Q.** What about the EC50 [13] of the same compound?
**A.** < 0.1 µM (active)

**Q.** What about the EC50 (cells) of the same compound?
**A.** 0.963 µM (active)

**Q.** And the EC50 (BJ [14])?
**A.** 1.83 µM (inconclusive)

**Q.** For `O=C(O)C1Nc2c(cccc2N2CCOCC2)C2C=CCC12` (centres undefined), which IC50 [15] is on record?
**A.** 60.1 µM (active)

**Q.** And the IC50 [16]?
**A.** 44 µM (active)

**Q.** What about the IC50 [17] of the same compound?
**A.** 3.87 µM (active)

**Q.** And the IC50 [18]?
**A.** > 100 µM (not active)

**Q.** What does the source list for `CCOc1ccc(S(=O)(=O)Nc2cnc3ccccc3c2)cc1`?
**A.** IC50 [18]: > 100 µM (not active); IC50 [2]: > 100 µM (inactive)

**Q.** For `O=C(c1ccco1)N1CCN(S(=O)(=O)c2ccc(S(=O)(=O)NC3CCCCC3)cc2)CC1`, which IC50 [19] is on record?
**A.** 23.8 µM (not active)
